From ChEMBL document CHEMBL4118077, “Synthesis of thiazole linked indolyl-3-glyoxylamide derivatives as tubulin polymerization inhibitors” (Eur J Med Chem, 2017)

Tests used:
DU-145 = test: Antiproliferative activity against human DU145 cells after 48 hrs by MTT assay; type: functional, cell-based; settings: DU-145, 48 h
A549 = test: Antiproliferative activity against human A549 cells after 48 hrs by MTT assay; type: functional, cell-based; settings: A549, 48 h
PC-3 = test: Antiproliferative activity against human PC3 cells after 48 hrs by MTT assay; type: functional, cell-based; settings: PC-3, 48 h
Sus scrofa = organism: Sus scrofa; test: Inhibition of porcine brain tubulin polymerization at 5 uM measured for 1 hr by fluorescence assay relative to control
HCT-15 = test: Antiproliferative activity against human HCT15 cells after 48 hrs by MTT assay; type: functional, cell-based; settings: HCT-15, 48 h

SMILES	IC50 (DU-145) [µM]	IC50 (A549) [µM]	IC50 (PC-3) [µM]	inhibition (Sus scrofa) [%]	IC50 (HCT-15) [µM]
O=C(Cn1cc(C(=O)C(=O)NC2CC2)c2ccccc21)Nc1nccs1	> 50	> 50	> 50		
O=C(Cn1cc(C(=O)C(=O)Nc2ccccc2)c2ccccc21)Nc1nccs1	5.15	20.9	> 50	23.5	> 50
O=C(CCn1cc(C(=O)C(=O)N2CCCCC2)c2ccccc21)Nc1nccs1	> 50	> 50	> 50		> 50
Cc1ccc(-c2csc(NC(=O)CCn3cc(C(=O)C(=O)N4CCCCC4)c4ccccc43)n2)cc1	> 50	> 50	> 50		> 50
CCOC(=O)c1nc(NC(=O)Cn2cc(C(=O)C(=O)NC3CC3)c3ccccc32)sc1C	4.6	20.9	8.5	21.3	10.3

Continued, values first:

IC50 (DU-145) [µM]	IC50 (A549) [µM]	IC50 (PC-3) [µM]	inhibition (Sus scrofa) [%]	IC50 (HCT-15) [µM]	SMILES
10.2	> 50	> 50		> 50	Cc1ccc(-c2csc(NC(=O)Cn3cc(C(=O)C(=O)Nc4ccccc4)c4cc(Br)ccc43)n2)cc1
> 50	41.8	> 50			O=C(Cn1cc(C(=O)C(=O)NC2CC2)c2ccccc21)Nc1nc(-c2ccccc2)cs1
5.6	> 50	13.6	23.3	12.5	COc1ccc2sc(NC(=O)Cn3cc(C(=O)C(=O)Nc4ccccc4)c4cc(Br)ccc43)nc2c1
5.5	> 50	9.4		> 50	COc1ccc2sc(NC(=O)Cn3cc(C(=O)C(=O)NC4CC4)c4ccccc43)nc2c1
25.5	43.7	> 50		> 50	O=C(Cn1cc(C(=O)C(=O)Nc2ccccc2)c2cc(Br)ccc21)Nc1nccs1
34.3	> 50	> 50		> 50	O=C(Cn1cc(C(=O)C(=O)Nc2ccccc2)c2ccccc21)Nc1nc(-c2ccccc2)cs1
